Values after ≈ are worked out from the molar mass of the structure shown.
Key:
[1] = Aqueous solubility of the compound incubated for 12 hrs by UV-Vis spectrophotometry; type: physicochemical; conditions: buffer
Staphylococcus aureus [2] = experiment: Antibacterial activity against methicillin-resistant Staphylococcus aureus 171 assessed as inhibition of bacterial growth incubated for 24 hrs by broth microdilution method; type: functional
Staphylococcus aureus [3] = experiment: Antibacterial activity against methicillin-resistant Staphylococcus aureus 575 assessed as inhibition of bacterial growth incubated for 24 hrs by broth microdilution method; type: functional
Staphylococcus aureus [4] = experiment: Antibacterial activity against methicillin-resistant Staphylococcus aureus 206 assessed as inhibition of bacterial growth incubated for 24 hrs by broth microdilution method; type: functional
Staphylococcus aureus [5] = experiment: Antibacterial activity against methicillin-resistant Staphylococcus aureus 222 assessed as inhibition of bacterial growth incubated for 24 hrs by broth microdilution method; type: functional
Staphylococcus aureus [6] = experiment: Antibacterial activity against methicillin-resistant Staphylococcus aureus 596 assessed as inhibition of bacterial growth incubated for 24 hrs by broth microdilution method; type: functional
Enterococcus = experiment: Antibacterial activity against vancomycin-resistant Enterococcus 80 assessed as inhibition of bacterial growth incubated for 24 hrs by broth microdilution method; type: functional
Pseudomonas aeruginosa = experiment: Antibacterial activity against multidrug-resistant Pseudomonas aeruginosa 126 assessed as inhibition of bacterial growth incubated for 24 hrs by broth microdilution method; type: functional
Klebsiella pneumoniae = experiment: Antibacterial activity against multidrug-resistant Klebsiella pneumoniae 893 assessed as inhibition of bacterial growth incubated for 24 hrs by broth microdilution method; type: functional
Acinetobacter baumannii = experiment: Antibacterial activity against carbapenem-resistant Acinetobacter baumannii 882 assessed as inhibition of bacterial growth incubated for 24 hrs by broth microdilution method; type: functional
[7] = Cytotoxicity against human HepG2 cells assessed as reduction in cell viability incubated for 24 hrs by CCK8 assay; type: toxicity, cell-based
[8] = Cytotoxicity against human HEK293 cells assessed as reduction in cell viability incubated for 24 hrs by CCK8 assay; type: toxicity, cell-based
[9] = Cytotoxicity against human A549 cells assessed as reduction in cell viability incubated for 24 hrs by CCK8 assay; type: toxicity, cell-based

SMILES | solubility at 12 h [1] | also measured
C=C[C@]1(C)C[C@@H](OC(=O)CSc2nc3cc[n+](Cc4ccc(C(C)(C)C)cc4)cc3[nH]2)[C@]2(C)[C@H](C)CC[C@]3(CCC(=O)[C@H]32)[C@@H](C)[C@@H]1O.[Br-] | 486 µg/mL | 
C=C[C@]1(C)C[C@@H](OC(=O)CSCCN(CC)CC)[C@]2(C)[C@H](C)CC[C@]3(CCC(=O)[C@H]32)[C@@H](C)[C@@H]1O [TIAMULIN] | 128 µg/mL (≈ 259 µM) | 
C=C[C@]1(C)C[C@@H](OC(=O)CSc2nc3cc[n+](Cc4ccc(F)cc4)cc3[nH]2)[C@]2(C)[C@H](C)CC[C@]3(CCC(=O)[C@H]32)[C@@H](C)[C@@H]1O.[Br-] | 159 µg/mL | 
C=C[C@]1(C)C[C@@H](OC(=O)CSc2nc3cc[n+](Cc4cc(C)cc(C)c4)cc3s2)[C@]2(C)[C@H](C)CC[C@]3(CCC(=O)[C@H]32)[C@@H](C)[C@@H]1O.[Br-] | 392 µg/mL | 
C=C[C@]1(C)C[C@@H](OC(=O)CSc2nc3cc[n+](Cc4cc(OC)cc(OC)c4)cc3s2)[C@]2(C)[C@H](C)CC[C@]3(CCC(=O)[C@H]32)[C@@H](C)[C@@H]1O.[Br-] | 94 µg/mL | 
C=C[C@]1(C)C[C@@H](OC(=O)CSc2nc3cc[n+](Cc4cc(F)c(F)cc4F)cc3s2)[C@]2(C)[C@H](C)CC[C@]3(CCC(=O)[C@H]32)[C@@H](C)[C@@H]1O.[Br-] | 485 µg/mL | 
C=C[C@]1(C)C[C@@H](OC(=O)CSc2nc3cc[n+](Cc4ccc(OC)cc4)cc3[nH]2)[C@]2(C)[C@H](C)CC[C@]3(CCC(=O)[C@H]32)[C@@H](C)[C@@H]1O.[Br-] | 150 µg/mL | 
C=C[C@]1(C)C[C@@H](OC(=O)CSc2nc3cc[n+](Cc4ccc(Br)cc4)cc3[nH]2)[C@]2(C)[C@H](C)CC[C@]3(CCC(=O)[C@H]32)[C@@H](C)[C@@H]1O.[Br-] | 432 µg/mL | 
C=C[C@]1(C)C[C@@H](OC(=O)CS[C@@H]2C[C@H]3CC[C@@H](C2)N3C)[C@]2(C)[C@H](C)CC[C@]3(CCC(=O)[C@H]32)[C@@H](C)[C@@H]1O [RETAPAMULIN] |  | MIC (Staphylococcus aureus [2]): 128 µg/mL (≈ 247 µM); MIC (Staphylococcus aureus [3]): 32 µg/mL (≈ 61.8 µM); MIC (Staphylococcus aureus [4]): 64 µg/mL (≈ 124 µM); MIC (Staphylococcus aureus [5]): 128 µg/mL (≈ 247 µM); MIC (Staphylococcus aureus [6]): 32 µg/mL (≈ 61.8 µM); MIC (Enterococcus): > 128 µg/mL; MIC (Pseudomonas aeruginosa): 64 µg/mL (≈ 124 µM); MIC (Klebsiella pneumoniae): 128 µg/mL (≈ 247 µM); MIC (Acinetobacter baumannii): 64 µg/mL (≈ 124 µM); CC50 at 24 h [7]: 61.1 µM; CC50 at 24 h [8]: 57.5 µM; CC50 at 24 h [9]: 71.5 µM
C=C[C@]1(C)C[C@@H](OC(=O)CSc2nc3cc[n+](Cc4ccc(C)cc4)cc3s2)[C@]2(C)[C@H](C)CC[C@]3(CCC(=O)[C@H]32)[C@@H](C)[C@@H]1O.[Br-] | 568 µg/mL | MIC (Staphylococcus aureus [2]): 8 µg/mL; MIC (Staphylococcus aureus [3]): 4 µg/mL; MIC (Staphylococcus aureus [4]): 2 µg/mL; MIC (Staphylococcus aureus [5]): 4 µg/mL; MIC (Staphylococcus aureus [6]): 8 µg/mL; MIC (Enterococcus): 8 µg/mL; MIC (Pseudomonas aeruginosa): 8 µg/mL; MIC (Klebsiella pneumoniae): 2 µg/mL; MIC (Acinetobacter baumannii): 4 µg/mL; CC50 at 24 h [7]: 46.4 µM; CC50 at 24 h [8]: 82.1 µM; CC50 at 24 h [9]: > 100 µM
C=C[C@]1(C)C[C@@H](OC(=O)CSc2nc3cc[n+](Cc4ccc(C(F)(F)F)cc4)cc3[nH]2)[C@]2(C)[C@H](C)CC[C@]3(CCC(=O)[C@H]32)[C@@H](C)[C@@H]1O.[Br-] | 337 µg/mL | 
C=C[C@]1(C)C[C@@H](OC(=O)CSc2nc3cc[n+](Cc4cc(OC)cc(OC)c4)cc3[nH]2)[C@]2(C)[C@H](C)CC[C@]3(CCC(=O)[C@H]32)[C@@H](C)[C@@H]1O.[Br-] | 176 µg/mL | 
C=C[C@]1(C)C[C@@H](OC(=O)CSc2nc3cc[n+](Cc4cc(C)cc(C)c4)cc3[nH]2)[C@]2(C)[C@H](C)CC[C@]3(CCC(=O)[C@H]32)[C@@H](C)[C@@H]1O.[Br-] | 414 µg/mL | 
C=C[C@]1(C)C[C@@H](OC(=O)CSc2nc3cc[n+](Cc4cc(F)ccc4C#N)cc3[nH]2)[C@]2(C)[C@H](C)CC[C@]3(CCC(=O)[C@H]32)[C@@H](C)[C@@H]1O.[Br-] | 91.8 µg/mL | 
C=C[C@]1(C)C[C@@H](OC(=O)CSc2nc3cc[n+](Cc4cc(F)c(F)cc4F)cc3[nH]2)[C@]2(C)[C@H](C)CC[C@]3(CCC(=O)[C@H]32)[C@@H](C)[C@@H]1O.[Br-] | 539 µg/mL | 
C=C[C@]1(C)C[C@@H](OC(=O)CSc2nc3cc[n+](Cc4ccc(Cl)cc4)cc3[nH]2)[C@]2(C)[C@H](C)CC[C@]3(CCC(=O)[C@H]32)[C@@H](C)[C@@H]1O.[Br-] | 419 µg/mL | 
C=C[C@]1(C)C[C@@H](OC(=O)CSc2nc3cc[n+](Cc4ccc(-c5ccccc5)cc4)cc3[nH]2)[C@]2(C)[C@H](C)CC[C@]3(CCC(=O)[C@H]32)[C@@H](C)[C@@H]1O.[Br-] | 367 µg/mL | 

The next lines start with results.

solubility at 12 h [1] | SMILES | also measured
449 µg/mL | C=C[C@]1(C)C[C@@H](OC(=O)CSc2nc3cc[n+](Cc4ccc(Cl)cc4)cc3s2)[C@]2(C)[C@H](C)CC[C@]3(CCC(=O)[C@H]32)[C@@H](C)[C@@H]1O.[Br-] | 
246 µg/mL | C=C[C@]1(C)C[C@@H](OC(=O)CSc2nc3cc[n+](Cc4ccc(C(F)(F)F)cc4)cc3s2)[C@]2(C)[C@H](C)CC[C@]3(CCC(=O)[C@H]32)[C@@H](C)[C@@H]1O.[Br-] | 
391 µg/mL | C=C[C@]1(C)C[C@@H](OC(=O)CSc2nc3cc[n+](Cc4ccc(-c5ccccc5)cc4)cc3s2)[C@]2(C)[C@H](C)CC[C@]3(CCC(=O)[C@H]32)[C@@H](C)[C@@H]1O.[Br-] | 
395 µg/mL | C=C[C@]1(C)C[C@@H](OC(=O)CSc2nc3cc[n+](Cc4ccc(F)cc4)cc3s2)[C@]2(C)[C@H](C)CC[C@]3(CCC(=O)[C@H]32)[C@@H](C)[C@@H]1O.[Br-] | 
344 µg/mL | C=C[C@]1(C)C[C@@H](OC(=O)CSc2nc3cc[n+](Cc4ccc(Br)cc4)cc3s2)[C@]2(C)[C@H](C)CC[C@]3(CCC(=O)[C@H]32)[C@@H](C)[C@@H]1O.[Br-] | 
453 µg/mL | C=C[C@]1(C)C[C@@H](OC(=O)CSc2nc3cc[n+](Cc4ccc(C(C)(C)C)cc4)cc3s2)[C@]2(C)[C@H](C)CC[C@]3(CCC(=O)[C@H]32)[C@@H](C)[C@@H]1O.[Br-] | 
168 µg/mL | C=C[C@]1(C)C[C@@H](OC(=O)CSc2nc3cc[n+](Cc4cc(F)ccc4C#N)cc3s2)[C@]2(C)[C@H](C)CC[C@]3(CCC(=O)[C@H]32)[C@@H](C)[C@@H]1O.[Br-] | 
648 µg/mL | Br.C=C[C@]1(C)C[C@@H](OC(=O)CSc2nc3cc[n+](Cc4ccc([N+](=O)[O-])cc4)cc3s2)[C@]2(C)[C@H](C)CC[C@]3(CCC(=O)[C@H]32)[C@@H](C)[C@@H]1O | 
691 µg/mL | Br.C=C[C@]1(C)C[C@@H](OC(=O)CSc2nc3cc[n+](Cc4ccc([N+](=O)[O-])cc4)cc3[nH]2)[C@]2(C)[C@H](C)CC[C@]3(CCC(=O)[C@H]32)[C@@H](C)[C@@H]1O | 
177 µg/mL | C=C[C@]1(C)C[C@@H](OC(=O)CSc2nc3cc[n+](Cc4ccc(OC)cc4)cc3s2)[C@]2(C)[C@H](C)CC[C@]3(CCC(=O)[C@H]32)[C@@H](C)[C@@H]1O.[Br-] | 
